According to patent US6337184B1, “Molecular marker for muscle stem cells” (priority 1997, dated 2002):
Entries after “also recorded” stand apart in the source; their conditions may differ.

Experiments:
Assay type in all cases: cell-based, mouse
[1] = system: C2C12 cells; test: Percentage of Bcl-2-expressing cells after apoptosis induction (immunostaining); settings: serum-free medium with staurosporine; increased from less than 20%
Procedure: Apoptosis was induced by transferring the cells to serum-free differentiation medium, with or without 0.5 μM staurosporine, and cell viability was measured by the MTT assay of mitochondrial function (Jacobsen et al., EMBO J. 13, 1899-1910 (1994)).
The hamster mAb, 3 F11, is specific for mouse Bcl-2 (Krajewski et al., Cancer Res. 53, 4701-4714 (1993)) and was used at 25 μg/ml.

[2] = system: C2C12 cells; test: MTT assay of mitochondrial function (cell viability) after apoptosis induction; settings: serum-free medium with 0.5 μM staurosporine, compared to growth medium or 2% HS; 1-2 days
Procedure: C2C12 and Sol8 cells were maintained in growth medium (DMEM with 15% fetal bovine serum, 2 mM L-glutamine, 10 mM HEPES, pH 7.4, and 100 U/ml penicillin) and induced to form myotubes in differentiation medium (growth medium with 2% horse serum in place of fetal bovine serum) (Yaffe et al., Nature 270, 725-727 (1977); Blau et al., Science 230, 758-766 (1985); and Montarras et al., New Biologist 3, 592-600 (1991)). […] Apoptosis was induced by transferring the cells to serum-free differentiation medium, with or without 0.5 μM staurosporine, and cell viability was measured by the MTT assay of mitochondrial function (Jacobsen et al., EMBO J. 13, 1899-1910 (1994)).
In this experiment, apoptosis was induced and Bcl-2 expression, cell viability, and differentiation capability were examined in cultures of myogenic cells.

[3] = system: C2C12 cells; test: G-418 selection of untransfected and neo-transfected C2C12 cells; settings: 500 μg/ml G-418, 11 days
Procedure: The Bcl-2 promoter-neo vector was prepared by using HindIII and MluI to excise the RSV promoter of pRSVneo (Gorman et al., Science 221:551-553 (1983)), after which an ˜2.6 kb PstI fragment of the human Bcl-2 promoter region (plasmid LB124; Chen et al., Mol. Cell. Biol. 15, 3840-3847 (1995)) was blunt-end ligated to the promotorless neo plasmid. C2C12 cells were transfected with Bcl-2-neo or pSV2neo using LIPOFECTAMINE™ (3:1 (w/w) 2,3-dioleyloxy-N-[2(spermine-carboxamido)ethyl]-N,N-dimethyl-1-propanaminiumtrifluoroacetate and dioleoyl phosphatidylethanolamine) (Gibco-BRL) and selected with G-418 (Dominov et al., Dev. Genet. 19, 108-118 (1996)).
To determine whether Bcl-2-expressing cells could function as stem cells, the differentiation of modified C2C12 cells that were selected based on their ability to express a Bcl-2 promoter fragment was examined. C2C12 cells were transfected with a plasmid in which expression of neomycin phosphotransferase was under the control of an ˜2.6 kb fragment of the human Bcl-2 promoter (Chen and Boxer, Mol. Cell. Biol. 15, 3840-3847 (1995)). From these transfections, four independent G-418-resistant lines (termed Bcl-2-neo cells) were isolated. […] In contrast, this treatment killed all untransfected C2C12 control cells and had no effect on C2C12 cells transfected with the ubiquitously expressed pSV2neo (FIG. 4). When transferred to fresh growth medium without G-418, the selected Bcl-2-neo cells resumed proliferation (FIG. 4) and were able to form multinucleate myotubes when switched to differentiation medium at confluence (not shown).

Compound | percentage of muscle stem cells in the population [1] | number of viable C2C12 cells [2] | effect on C2C12 cells carrying neo under SV40 promoter (pSV2neo) [3] | survival of C2C12 cells carrying Bcl-2 promoter-neo fusion gene (Bcl-2-neo) [3] | survival of untransfected C2C12 cells (control) [3]
CN[C@@H]1C[C@H]2O[C@@](C)([C@@H]1OC)n1c3ccccc3c3c4c(c5c6ccccc6n2c5c31)C(=O)NC4 [staurosporine] | 50-80% | greatly reduced; also recorded: decreased |  |  | 
CN[C@@H]1[C@@H](O)[C@@H](O[C@@H]2[C@@H](O)[C@H](O[C@H]3O[C@H]([C@@H](C)O)[C@@H](O)[C@H](O)[C@H]3N)[C@@H](N)C[C@H]2N)OC[C@]1(C)O [G-418] |  |  | no effect | a portion of C2C12 cells that carry a Bcl-2 promoter-neo fusion gene (Bcl-2-neo) survived; also recorded: a portion of the cells remained viable | killed all
